According to ChEMBL document CHEMBL1133325, “Synthesis and biological activity of fluoro-substituted pyrrolo[2,3-d]pyrimidines: the development of potential positron emission tomography imaging agents for the corticotropin-releasing hormone type 1 receptor” (Bioorg Med Chem Lett, 2000):

What follows are compounds tested against T1, Corticotropin-releasing factor receptor 1 (Rattus norvegicus, UniProt P35353) (assay: Compound was tested in vitro for its ability to displace [125 I]Tyr-sauvagine from corticotropin-releasing hormone type 1 receptor in rat cerebellum).
T1 sequence (P35353 whole entry): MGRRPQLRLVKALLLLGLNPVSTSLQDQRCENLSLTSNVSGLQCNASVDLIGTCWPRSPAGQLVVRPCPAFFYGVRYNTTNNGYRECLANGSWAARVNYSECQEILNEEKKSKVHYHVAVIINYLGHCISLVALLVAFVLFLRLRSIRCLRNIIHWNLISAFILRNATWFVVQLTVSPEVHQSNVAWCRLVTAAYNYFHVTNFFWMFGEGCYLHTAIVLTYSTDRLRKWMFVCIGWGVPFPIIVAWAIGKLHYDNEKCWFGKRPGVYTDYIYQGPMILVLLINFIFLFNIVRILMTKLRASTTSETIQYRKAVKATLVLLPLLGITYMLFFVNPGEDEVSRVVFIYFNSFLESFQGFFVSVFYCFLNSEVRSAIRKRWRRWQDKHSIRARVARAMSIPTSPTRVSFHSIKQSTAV
Assay type: tissue-based

Row | SMILES | Ki
1 | Cc1cc(C)c(-n2c(C)c(C)c3c(N4CCN(CCF)CC4)nc(C)nc32)c(C)c1 | > 1000 nM
2 | CCCN(CCCCF)c1nc(C)nc2c1c(C)c(C)n2-c1c(C)cc(C)cc1C | 0.91 nM
3 | CCCCN(CC)c1nc(C)nc2c1c(C)c(C)n2-c1c(C)cc(C)cc1C [ANTALARMIN] | 2.5 nM

Other lines, results leading:

Row | Ki | SMILES
4 | 10 nM | CCCCN(CCCCF)c1nc(C)nc2c1c(C)c(C)n2-c1c(C)cc(C)cc1C
5 | 30 nM | Cc1cc(C)c(-n2c(C)c(C)c3c(N(CCCF)CC4CC4)nc(C)nc32)c(C)c1
6 | 2.3 nM | CCCN(CC1CC1)c1nc(C)nc2c1c(C)c(C)n2-c1c(C)cc(C)cc1C
7 | 3.5 nM | CCN(CCCCF)c1nc(C)nc2c1c(C)c(C)n2-c1c(C)cc(C)cc1C
